Measurements: US20070155746A1, “NOVEL SUBSTITUTED PYRIDINYLOXY AND PYRIMIDINYLOXY AMIDES USEFUL AS INHIBITORS OF PROTEIN KINASES” (KALYPSYS, INC., priority 2005, published 2007)
pIC50: −log10 of the molar value.

How the values were obtained:
Assay type in all cases: biochemical
[1] = target: T1, human B-Raf protein kinase (Homo sapiens, UniProt P15056); assay: In vitro B-Raf/Mek1 composite kinase assay
T1 construct: GST (N); purchased Upstate Inc. 14-530 (B-Raf); 14-420 (Mek1)
Experimental: In Vitro B-Raf/Mek1 Composite Kinase Assay
2.5 μl of B-Raf kinase buffer (20 mM MOPS [pH 7.2], 25 mM sodium glycerophosphate, 2 mM EGTA [pH 8.0], 1 mM sodium orthovanadate, 1 mM dithiothreitol, 10 mM MgCl2, 0.03% Brij-35, 0.3 mg/ml bovine serum albumin) containing lng of recombinant, N-terminal GST-tagged human B-Raf protein kinase (Δ1-415, Upstate Inc., cat. #14-530) is dispensed to wells of a 1536 multi-well white solid plate. 60 nl of 100× concentration of test compound in DMSO is dispensed to the well by passive pin transfer and incubated for 15 minutes at room temperature (approx. 22° C.). […] The assay plates are sealed and maintained in a humidified environment. After 2 hours, 2.5 μl of PKLight protein kinase assay reagent (Cambrex, cat. #LT07-501) is dispensed. After an additional 5 minute incubation at room temperature, luminescence activity is measured on a Molecular Devices Analyst multi-mode plate reader or other suitable plate reader. Kinase inhibition results in less ATP depletion, and therefore increased luminescence signal. Negative control activity is measured with DMSO lacking any test compound. The positive control is [N-(3-trifluoromethyl-4-chlorophenyl)-N′-(4-(2-methylcarbamoyl-pyridin-4-yl)oxyphenyl)urea], aka Bay 43-9006. Efficacy is measured as a percentage of positive control activity.

VEGFR2 kinase = target: T2, VEGFR2 kinase (Homo sapiens, UniProt P35968); assay: In vitro VEGFR2 kinase assay
T2 construct: purchased Invitrogen Inc PV3660
Experimental: (§1) In Vitro VEGFR2 and PDGFRP Kinase Assays
(§2) 2.5 μl of ADP Quest assay buffer (DiscoverX Inc., cat. #90-0071) containing 20 ng VEGFR2 kinase (Invitrogen Inc, cat. #PV3660) or 25 ng PDGFRβ kinase (Invitrogen Inc., cat. #P3082) is dispensed to wells of a 1536 multi-well, black solid plate. 60 nl of 100× concentration of test compound in DMSO is dispensed to the well by passive pin transfer and incubated for 10 minutes at room temperature (approx. 22° C.). 2.5 μl of ADP Quest assay buffer containing 0.25 μg of poly Glu:Tyr (4:1) substrate peptide (Upstate Inc., cat. #12-440) and 60 μM ATP is then dispensed and the kinase reaction allowed to incubate at 30° C. for 2 hours. The assay plates are sealed and maintained in a humidified environment. After the 2 hour incubation, 2 μl of ADP Quest assay reagent A, followed by 2 μl of assay reagent B, is added. After an additional 30 minute incubation at room temperature, fluorescence intensity is measured on a Molecular Devices Aquest multi-mode plate reader or other suitable plate reader (fluorescence excitation filter: 530/25 [Peak(nm)/FWHM passband(nm)]; dichroic beamsplitter: 561 nm longpass; fluorescence emission filter: 580/10 [Peak(nm)/FWHM passband(nm)]. The assay measures the conversion of a non-fluoresecent molecule to fluorescent resorufin, which correlates with kinase activity. Negative control activity is measured with DMSO lacking any test compound. The positive control is [N-(3-trifluoromethyl-4-chlorophenyl)-N′-(4-(2-methylcarbamoyl-pyridin-4-yl)oxyphenyl)urea], aka Bay 43-9006. Efficacy is measured as a percentage of positive control activity.

PDGFRβ kinase = target: T3, PDGFRβ kinase (Homo sapiens, UniProt P09619); assay: In vitro PDGFRβ kinase assay
T3 construct: purchased Invitrogen Inc. P3082
Experimental: as §1, §2

T3 sequence (P09619 33-1106): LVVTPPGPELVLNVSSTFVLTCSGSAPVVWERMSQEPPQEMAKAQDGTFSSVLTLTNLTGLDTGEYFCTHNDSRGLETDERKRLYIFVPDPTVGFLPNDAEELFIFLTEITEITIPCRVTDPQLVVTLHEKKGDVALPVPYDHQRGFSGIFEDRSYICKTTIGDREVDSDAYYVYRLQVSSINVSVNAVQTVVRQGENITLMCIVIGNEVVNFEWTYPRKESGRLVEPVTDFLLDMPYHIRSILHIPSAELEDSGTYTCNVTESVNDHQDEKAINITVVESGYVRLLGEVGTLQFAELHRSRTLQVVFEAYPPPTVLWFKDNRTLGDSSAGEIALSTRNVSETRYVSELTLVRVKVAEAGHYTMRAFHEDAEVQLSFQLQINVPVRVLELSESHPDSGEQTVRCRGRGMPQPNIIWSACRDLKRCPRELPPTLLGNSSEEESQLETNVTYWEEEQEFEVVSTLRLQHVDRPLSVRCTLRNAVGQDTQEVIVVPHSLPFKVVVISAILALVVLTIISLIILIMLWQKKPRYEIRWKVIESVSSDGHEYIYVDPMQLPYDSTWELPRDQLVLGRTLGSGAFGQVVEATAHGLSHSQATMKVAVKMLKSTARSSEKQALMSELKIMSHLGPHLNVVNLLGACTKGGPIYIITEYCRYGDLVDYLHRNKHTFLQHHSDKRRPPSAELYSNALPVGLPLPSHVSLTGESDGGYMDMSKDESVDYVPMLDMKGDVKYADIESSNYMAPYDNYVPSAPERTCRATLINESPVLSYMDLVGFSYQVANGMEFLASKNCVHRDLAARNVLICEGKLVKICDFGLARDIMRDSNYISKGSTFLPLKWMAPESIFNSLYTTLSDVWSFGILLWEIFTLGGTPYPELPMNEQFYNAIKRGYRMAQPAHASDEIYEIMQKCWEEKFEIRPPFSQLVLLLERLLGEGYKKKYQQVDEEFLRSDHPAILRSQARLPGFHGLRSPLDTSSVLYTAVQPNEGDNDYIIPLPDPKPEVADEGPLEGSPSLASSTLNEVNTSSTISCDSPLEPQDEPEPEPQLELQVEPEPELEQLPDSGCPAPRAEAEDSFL
T1 sequence (P15056 416-766): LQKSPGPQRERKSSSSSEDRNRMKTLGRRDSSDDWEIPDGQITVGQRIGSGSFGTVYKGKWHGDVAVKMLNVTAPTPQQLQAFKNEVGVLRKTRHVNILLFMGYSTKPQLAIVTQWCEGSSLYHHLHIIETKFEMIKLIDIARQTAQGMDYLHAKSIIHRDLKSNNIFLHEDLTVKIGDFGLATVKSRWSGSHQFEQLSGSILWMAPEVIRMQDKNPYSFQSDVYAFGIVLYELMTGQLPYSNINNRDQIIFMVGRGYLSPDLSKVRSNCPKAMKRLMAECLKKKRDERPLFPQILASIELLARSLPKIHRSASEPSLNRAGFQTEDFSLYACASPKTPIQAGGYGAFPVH
T2 sequence (P35968 20-1356): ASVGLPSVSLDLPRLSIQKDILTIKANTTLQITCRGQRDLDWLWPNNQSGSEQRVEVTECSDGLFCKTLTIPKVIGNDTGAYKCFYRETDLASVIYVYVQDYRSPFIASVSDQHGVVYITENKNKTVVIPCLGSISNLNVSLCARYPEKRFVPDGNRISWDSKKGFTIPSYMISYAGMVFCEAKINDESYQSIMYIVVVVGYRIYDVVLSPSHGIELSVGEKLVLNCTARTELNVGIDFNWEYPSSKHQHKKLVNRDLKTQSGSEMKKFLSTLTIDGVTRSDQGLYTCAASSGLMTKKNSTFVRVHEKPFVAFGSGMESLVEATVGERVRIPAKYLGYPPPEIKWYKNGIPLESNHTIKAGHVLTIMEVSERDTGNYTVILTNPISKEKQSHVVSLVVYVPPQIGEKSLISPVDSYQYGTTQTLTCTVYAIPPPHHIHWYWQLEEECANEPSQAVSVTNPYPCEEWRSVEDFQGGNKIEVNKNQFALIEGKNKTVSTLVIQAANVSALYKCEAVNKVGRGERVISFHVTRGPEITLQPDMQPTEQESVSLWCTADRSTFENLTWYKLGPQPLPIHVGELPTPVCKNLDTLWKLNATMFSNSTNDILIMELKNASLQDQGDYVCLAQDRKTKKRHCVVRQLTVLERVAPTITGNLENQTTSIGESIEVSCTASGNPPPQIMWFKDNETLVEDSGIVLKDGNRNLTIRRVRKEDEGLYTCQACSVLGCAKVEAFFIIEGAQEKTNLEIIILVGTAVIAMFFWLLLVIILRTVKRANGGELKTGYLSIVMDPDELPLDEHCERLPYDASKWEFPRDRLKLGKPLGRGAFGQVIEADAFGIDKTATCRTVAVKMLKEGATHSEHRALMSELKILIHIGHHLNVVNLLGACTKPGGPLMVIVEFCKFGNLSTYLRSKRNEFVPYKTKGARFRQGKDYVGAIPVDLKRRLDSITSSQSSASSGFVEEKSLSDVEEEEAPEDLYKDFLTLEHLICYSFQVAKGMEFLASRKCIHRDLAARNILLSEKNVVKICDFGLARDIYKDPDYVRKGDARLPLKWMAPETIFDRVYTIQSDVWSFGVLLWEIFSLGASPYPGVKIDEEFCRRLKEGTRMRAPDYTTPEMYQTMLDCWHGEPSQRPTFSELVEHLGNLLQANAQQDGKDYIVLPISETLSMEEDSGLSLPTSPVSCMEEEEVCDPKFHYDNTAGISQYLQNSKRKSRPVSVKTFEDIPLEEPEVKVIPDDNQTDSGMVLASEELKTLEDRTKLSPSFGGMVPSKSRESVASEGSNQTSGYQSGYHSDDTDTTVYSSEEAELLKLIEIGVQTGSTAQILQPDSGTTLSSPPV

With CCCOc1ccc(C(=O)Nc2cccc(Oc3ccnc(-c4cnn(C)c4)c3)c2)cc1 [Example 74, N-(3-(2-(1-Methyl-1H-pyrazol-4-yl)pyridin-4-yloxy)phenyl)-4-propoxybenzamide] the pIC50 [1] was at least 5.00, the pIC50 (VEGFR2 kinase) was under 5.00 and the pIC50 (PDGFRβ kinase) was under 5.00.

Cn1cc(-c2cc(Oc3cccc(NC(=O)c4cccc(Oc5ccccc5)c4)c3)ccn2)cn1 [Example 55, N-(3-(2-(1-Methyl-1H-pyrazol-4-yl)pyridin-4-yloxy)phenyl)-3-phenoxybenzamide] was tested, and the pIC50 [1] was under 5.00, the pIC50 (VEGFR2 kinase) was at least 5.00 and the pIC50 (PDGFRβ kinase) was under 5.00.

Cn1cc(-c2nccc(Oc3cccc(NC(=O)c4ccc(OC(F)(F)F)cc4)c3)n2)cn1 [Example 27, N-{3-[2-(1-Methyl-1H-pyrazol-4-yl)-pyrimidin-4-yloxy]-phenyl}-4-trifluoromethoxy-benzamide] was tested, and the pIC50 [1] was under 5.00, the pIC50 (VEGFR2 kinase) was under 5.00 and the pIC50 (PDGFRβ kinase) was under 5.00.

Cn1cc(-c2cc(Oc3cccc(NC(=O)c4ccc(Cl)c(C(F)(F)F)c4)c3)ccn2)cn1 [Example 21, 4-Chloro-N-(3-(2-(1-methyl-1H-pyrazol-4-yl)pyridin-4-yloxy)phenyl)-3-(trifluoromethyl)benzamide] showed a pIC50 [1] of under 5.00, a pIC50 (VEGFR2 kinase) of under 5.00 and a pIC50 (PDGFRβ kinase) of under 5.00.

For Cn1cc(-c2cc(Oc3cccc(NC(=O)c4ccccc4-n4ccnc4)c3)ccn2)cn1 [Example 36, 2-(1H-Imidazol-1-yl)-N-(3-(2-(1-methyl-1H-pyrazol-4-yl)pyridin-4-yloxy)phenyl) benzamide], the pIC50 [1] was under 5.00, the pIC50 (VEGFR2 kinase) was at least 5.00 and the pIC50 (PDGFRβ kinase) was at least 5.00.

Work on Cn1cc(-c2cc(Oc3cccc(NC(=O)c4cc(OC(F)(F)F)cc(OC(F)(F)F)c4)c3)ccn2)cn1 [Example 41, N-(3-(2-(1-methyl-1H-pyrazol-4-yl)pyridin-4-yloxy)phenyl)-3,5-bis(trifluoromethoxy)benzamide] yielded a pIC50 [1] of under 5.00, a pIC50 (VEGFR2 kinase) of under 5.00 and a pIC50 (PDGFRβ kinase) of under 5.00.

Cn1cc(-c2cc(Oc3cccc(NC(=O)c4cccc(-c5ccncc5)c4)c3)ccn2)cn1 [Example 34, N-(3-(2-(1-Methyl-1H-pyrazol-4-yl)pyridin-4-yloxy)phenyl)-3-(pyridin-4-yl)benzamide] showed a pIC50 [1] of under 5.00, a pIC50 (VEGFR2 kinase) of under 5.00 and a pIC50 (PDGFRβ kinase) of under 5.00.

With Cn1cc(-c2cc(Oc3cccc(NC(=O)c4cccc(-c5ccccn5)c4)c3)ccn2)cn1 [Example 32, N-(3-(2-(1-Methyl-1H-pyrazol-4-yl)pyridin-4-yloxy)phenyl)-3-(pyridin-2-yl)benzamide] the pIC50 [1] was under 5.00, the pIC50 (VEGFR2 kinase) was under 5.00 and the pIC50 (PDGFRβ kinase) was under 5.00.

CCOc1cc(OCC)cc(C(=O)Nc2cc(Oc3cc(-c4cnn(C)c4)ncn3)ccc2F)c1 [Example 17, 3,5-Diethoxy-N-(2-fluoro-5-(6-(1-methyl-1H-pyrazol-4-yl)pyrimidin-4-yloxy)phenyl)benzamide] was tested, and the pIC50 [1] was under 5.00, the pIC50 (VEGFR2 kinase) was under 5.00 and the pIC50 (PDGFRβ kinase) was under 5.00.

Work on Cn1cc(-c2cc(Oc3cccc(NC(=O)c4ccc5ccccc5c4)c3)ccn2)cn1 [Example 53, N-(3-(2-(1-Methyl-1H-pyrazol-4-yl)pyridin-4-yloxy)phenyl)-2-naphthamide] yielded a pIC50 [1] of under 5.00, a pIC50 (VEGFR2 kinase) of under 5.00 and a pIC50 (PDGFRβ kinase) of under 5.00.

Cn1cc(-c2cc(Oc3cccc(NC(=O)c4ccc(C(F)(F)F)cc4)c3)ccn2)cn1 [Example 45, N-(3-(2-(1-Methyl-1H-pyrazol-4-yl)pyridin-4-yloxy)phenyl)-4-(trifluoromethyl)benzamide] was tested, and the pIC50 [1] was at least 5.00, the pIC50 (VEGFR2 kinase) was under 5.00 and the pIC50 (PDGFRβ kinase) was under 5.00.

With Cn1cc(-c2cc(Oc3cccc(NC(=O)c4ccc(-n5cccc5)cc4)c3)ccn2)cn1 [Example 59, N-(3-(2-(1-Methyl-1H-pyrazol-4-yl)pyridin-4-yloxy)phenyl)-4-(1H-pyrrol-1-yl)benzamide] the pIC50 [1] was at least 5.00, the pIC50 (VEGFR2 kinase) was under 5.00 and the pIC50 (PDGFRβ kinase) was under 5.00.

CCOc1cc(OCC)cc(C(=O)Nc2cccc(Oc3cc(-c4nc(C(F)(F)F)c[nH]4)ncn3)c2)c1 [Example 18, 3,5-Diethoxy-N-(3-(6-(4-(trifluoromethyl)-1H-imidazol-2-yl)pyrimidin-4-yloxy)phenyl)benzamide] showed a pIC50 [1] of under 5.00, a pIC50 (VEGFR2 kinase) of at least 5.00 and a pIC50 (PDGFRβ kinase) of at least 5.00.

Cn1cc(-c2cc(Oc3cccc(NC(=O)c4cccc5cc[nH]c45)c3)ccn2)cn1 [Example 71, N-(3-(2-(1-Methyl-1H-pyrazol-4-yl)pyridin-4-yloxy)phenyl)-1H-indole-7-carboxamide] was tested, and the pIC50 [1] was at least 5.00, the pIC50 (VEGFR2 kinase) was under 5.00 and the pIC50 (PDGFRβ kinase) was under 5.00.

Compound O=C(Cc1ccc(F)c(C(F)(F)F)c1)Nc1cccc(Oc2ccnc(-c3nnco3)c2)c1 [Example 1, N-(3-(2-(1,3,4-Oxadiazol-2-yl)pyridin-4-yloxy)phenyl)-2-(4-fluoro-3-(trifluoromethyl)phenyl)acetamide] has a pIC50 [1] of under 5.00, a pIC50 (VEGFR2 kinase) of at least 5.00 and a pIC50 (PDGFRβ kinase) of under 5.00.

With CCCOc1cccc(C(=O)Nc2cccc(Oc3ccnc(-c4cnn(C)c4)c3)c2)c1 [Example 73, N-(3-(2-(1-Methyl-1H-pyrazol-4-yl)pyridin-4-yloxy)phenyl)-3-propoxybenzamide] the pIC50 [1] was under 5.00, the pIC50 (VEGFR2 kinase) was under 5.00 and the pIC50 (PDGFRβ kinase) was under 5.00.

Cn1cc(-c2cc(Oc3cccc(NC(=O)c4ccc5c(c4)OCO5)c3)ccn2)cn1 [Example 61, N-(3-(2-(1-Methyl-1H-pyrazol-4-yl)pyridin-4-yloxy)phenyl)benzo[d][1,3]dioxole-5-carboxamide] was tested, and the pIC50 [1] was at least 5.00, the pIC50 (VEGFR2 kinase) was under 5.00 and the pIC50 (PDGFRβ kinase) was under 5.00.

Compound Cn1cc(-c2cc(Oc3cccc(NC(=O)c4cccc(-n5ccnc5)c4)c3)ccn2)cn1 [Example 37, 3-(1H-Imidazol-1-yl)-N-(3-(2-(1-methyl-1H-pyrazol-4-yl)pyridin-4-yloxy)phenyl) benzamide] has a pIC50 [1] of under 5.00, a pIC50 (VEGFR2 kinase) of under 5.00 and a pIC50 (PDGFRβ kinase) of under 5.00.

Cn1cc(-c2cc(Oc3cccc(NC(=O)c4ccccc4C(F)(F)F)c3)ccn2)cn1 [Example 43, N-(3-(2-(1-Methyl-1H-pyrazol-4-yl)pyridin-4-yloxy)phenyl)-2-(trifluoromethyl)benzamide] was tested, and the pIC50 [1] was at least 5.00, the pIC50 (VEGFR2 kinase) was at least 5.00 and the pIC50 (PDGFRβ kinase) was at least 5.00.

For CCCCOc1cc(C(=O)Nc2cccc(Oc3ccnc(-c4nnco4)c3)c2)ccc1OC [Example 10, N-(3-(2-(1,3,4-Oxadiazol-2-yl)pyridin-4-yloxy)phenyl)-3-butoxy-4-methoxybenzamide], the pIC50 [1] was under 5.00, the pIC50 (VEGFR2 kinase) was at least 5.00 and the pIC50 (PDGFRβ kinase) was at least 5.00.

Work on Cn1cc(-c2cc(Oc3cccc(NC(=O)c4ccc(C(=O)c5ccccc5)cc4)c3)ccn2)cn1 [Example 51, 4-Benzoyl-N-(3-(2-(1-methyl-1H-pyrazol-4-yl)pyridin-4-yloxy)phenyl)benzamide] yielded a pIC50 [1] of at least 5.00, a pIC50 (VEGFR2 kinase) of at least 5.00 and a pIC50 (PDGFRβ kinase) of under 5.00.

Work on Cn1cc(-c2cc(Oc3cccc(NC(=O)c4ccc(C#N)cc4)c3)ccn2)cn1 [Example 47, 4-Cyano-N-(3-(2-(1-methyl-1H-pyrazol-4-yl)pyridin-4-yloxy)phenyl)benzamide] yielded a pIC50 [1] of at least 5.00, a pIC50 (VEGFR2 kinase) of under 5.00 and a pIC50 (PDGFRβ kinase) of under 5.00.

Cn1cc(-c2cc(Oc3cccc(NC(=O)c4ccccc4OC(F)(F)F)c3)ccn2)cn1 [Example 39, N-(3-(2-(1-Methyl-1H-pyrazol-4-yl)pyridin-4-yloxy)phenyl)-2-(trifluoromethoxy)benzamide] was tested, and the pIC50 [1] was at least 5.00, the pIC50 (VEGFR2 kinase) was under 5.00 and the pIC50 (PDGFRβ kinase) was under 5.00.

CCOc1cc(OCC)cc(C(=O)Nc2ccc(Oc3ccnc(-c4cnn(C)c4)c3)cc2)c1 [Example 20, 3,5-Diethoxy-N-(4-(2-(1-methyl-1H-pyrazol-4-yl)pyridin-4-yloxy)phenyl)benzamide] showed a pIC50 [1] of at least 5.00, a pIC50 (VEGFR2 kinase) of at least 5.00 and a pIC50 (PDGFRβ kinase) of at least 5.00.

O=C(Nc1cccc(Oc2ccnc(-c3nnco3)c2)c1)c1cccc(Oc2ccccc2)c1 [Example 4, N-(3-(2-(1,3,4-Oxadiazol-2-yl)pyridin-4-yloxy)phenyl)-3-phenoxybenzamide] showed a pIC50 [1] of under 5.00, a pIC50 (VEGFR2 kinase) of at least 5.00 and a pIC50 (PDGFRβ kinase) of at least 5.00.
